Assay results taken from paper doi:10.1101/2020.06.07.139295v2 (biorxiv, 2020).
Substitutions are numbered along the chain they refer to.

Columns and labels:
TTLL6 (51-502) [1] = target: T1, TTLL6 (51-502) (Mus musculus, UniProt A4Q9E8); assay: [3H]-glutamate transfer to taxol-stabilized brain microtubules, filter assay; assay type: biochemical
T1 sequence (A4Q9E8 51-502): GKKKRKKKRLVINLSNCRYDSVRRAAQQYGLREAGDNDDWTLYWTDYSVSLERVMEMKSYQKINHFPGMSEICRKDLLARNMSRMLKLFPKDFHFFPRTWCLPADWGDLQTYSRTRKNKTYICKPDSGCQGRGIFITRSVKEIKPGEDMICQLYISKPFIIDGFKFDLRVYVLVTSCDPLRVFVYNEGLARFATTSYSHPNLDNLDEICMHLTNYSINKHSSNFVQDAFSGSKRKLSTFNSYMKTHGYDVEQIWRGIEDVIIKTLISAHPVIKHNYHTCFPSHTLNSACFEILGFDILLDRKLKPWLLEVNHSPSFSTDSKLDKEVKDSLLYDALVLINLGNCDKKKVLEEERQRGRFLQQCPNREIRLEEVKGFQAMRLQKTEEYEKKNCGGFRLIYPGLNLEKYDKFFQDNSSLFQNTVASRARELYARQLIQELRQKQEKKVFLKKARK

TTLL6 (51-502) [2] = target: T2, TTLL6 (51-502) (Mus musculus, UniProt A4Q9E8, C179A/H362I/Q180R); assay: as above; assay type: biochemical
T2 sequence (A4Q9E8 51-502 C179A/Q180R/H362I): T1 sequence (A4Q9E8 51-502) with C129A, Q130R, H312I

| IC50 (TTLL6 (51-502) [1]) [µM] | IC50 (TTLL6 (51-502) [2]) [µM] | SMILES |
| --- | --- | --- |
| 6.1 | 3.5 ± 0.2 | CCNC(=O)[C@H](CCP(=O)(O)CC(CCC(=O)O)C(=O)O)NC(C)=O (mixture of isomers) [initiation analog] |
| ~6 | 2.5 ± 0.1 | CC(=O)N[C@@H](CCP(=O)(O)CC(CCC(=O)O)C(=O)O)C(=O)O (mixture of isomers) [γ-elongation analog] |
| 0.6 ± 0.05 | 5.4 ± 0.8 | CC(=O)NC(CCC(=O)O)P(=O)(O)CC(CCC(=O)O)C(=O)O (mixture of isomers) [α-elongation analog] |
